From patent US8748462B2, “Spirocyclic GPR40 modulators” (Amgen Inc., priority 2008, dated 2014) come the findings set out here.

Assay [1] concerns the target T1, human GPR40 (Homo sapiens, UniProt O14842).
T1 construct: expressed in transfected cells; host or cells: CHO cells stably transfected with GPR40 and Aequorin
In words: Cell-based aequorin assay. As to conditions: CHO cells stably transfected with GPR40 and aequorin; 0.01% HSA. Here is the method:
Cell-based aequorin assays were employed to characterize the modulatory activity of compounds on the GPR40 signaling pathway. In an exemplary assay, CHO cells were stably transfected with both GPR40 and Aequorin (Euroscreen). Cells were detached from the tissue culture dish with 2 mL of trypsin (0.25% (w/v)). Trypsinization was halted with 28 mL of Hanks Buffered Salt Solution containing 20 mM Hepes (H/HBSS) and 0.01% fatty acid-free human serum albumin (HSA). Coelantrazine is added to 1 ug/mL, and the cells were incubated for 2 hours at room temperature. Compounds were dissolved in DMSO for preparation of 10 mM stock solutions. Compounds were diluted in H/HBSS containing 0.01% HSA. Serial dilutions of the test compounds were prepared to determine dose response.
Aequorin luminescence measurements were made using an EG&G Berthold 96-well luminometer, and the response was measured over a 20 second interval after cells and compounds were mixed. The maximum relative light units was plotted to determine dose response. The EC50 (effective concentration to reach 50% maximal response) was determined from the dose response plot.

Assay [2] addresses T1, human GPR40. In words: Inositol phosphate accumulation assay. It is filed as cell-based. As to conditions: A9 cell line stably transfected with GPR40; 1 hour at 37° C.; read-out: IP3 EC50. Here is the method: An A9 cell line stably transfected with GPR40 (A9_GPR40) was used in IP accumulation assays. A9_GPR40 cells were plated in 96-well plates containing 20,000 cells/well in DMEM containing 10% FBS. After the cells attached to the well surface, the media was replaced with inositol free DMEM containing 10% dialyzed FBS and 1 μCi, mL ^3H-inositol and incubated for 16 hours. Compounds were diluted in HBSS/10 mM LiCl containing a desired amount of HSA and added directly to cells. Following 1 hour incubation at 37° C., the media was replaced with 100 μL of 20 mM formic acid to quench the reaction. 50 μL of the extract was then added to 100 μL of SPA beads, incubated overnight, and measured on a TopCount the following day.

Some results are limits rather than exact numbers.

T1 sequence (O14842 whole entry): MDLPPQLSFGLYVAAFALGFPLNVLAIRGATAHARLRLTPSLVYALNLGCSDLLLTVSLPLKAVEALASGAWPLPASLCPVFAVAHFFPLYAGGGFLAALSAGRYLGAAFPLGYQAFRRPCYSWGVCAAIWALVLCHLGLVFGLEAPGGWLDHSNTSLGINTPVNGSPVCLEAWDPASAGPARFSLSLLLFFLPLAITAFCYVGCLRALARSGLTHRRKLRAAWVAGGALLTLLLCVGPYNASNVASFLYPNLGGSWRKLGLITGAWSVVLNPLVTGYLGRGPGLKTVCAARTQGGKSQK

For the molecule `COc1ccc(F)c(-c2ccc(COc3cc(F)c4c(c3F)[C@]3(CC4)C[C@H]3C(=O)O)cc2[C@@H](OC)C(C)(C)C)c1` (single isomer, unassigned) [Example 37], the EC50 at human GPR40 [1] was 10 to 100 nM.

With `COc1cc(-c2ccc(COc3ccc4c(c3)[C@]3(CCC4)C[C@H]3C(=O)O)cc2[C@@H](OC)C(C)(C)C)c(F)cn1` (single isomer, unassigned) [Example 44], the EC50 on human GPR40 [1] is 10 to 100 nM; at human GPR40 [2] it was less than 10 nM.

On human GPR40 [1], `COc1cc(-c2cc(F)c(COc3ccc4c(c3)[C@]3(CCC4)C[C@H]3C(=O)O)cc2[C@H]2CCCC2(C)C)c(F)cn1` (single isomer, unassigned) [Example 43] yielded an EC50 of 10 to 100 nM.

As to `COc1ccc(F)c(-c2cc(COc3ccc4c(c3)[C@@]3(CC4)C[C@H]3C(=O)O)ccc2C(C)(C)C)c1` [Example 8], at human GPR40 [1], the EC50 was more than 10000 nM.

`COc1cc(-c2ccc(COc3cc(F)c4c(c3F)[C@]3(CC4)C[C@H]3C(=O)O)cc2[C@@H]2CCCC2(C)C)c(F)cn1` (single isomer, unassigned) [Example 42] had an EC50 on human GPR40 [1] of 1000 to 10000 nM.

The molecule `COc1ccc(F)c(-c2ccc(COc3ccc4c(c3)[C@]3(CCC4)CC[C@@H]3C(=O)O)cc2[C@@H](OC)C(C)(C)C)c1` (single isomer, unassigned) [Example 152] gave an EC50 on human GPR40 [1] of 1000 to 10000 nM.

With `COCC1(c2cc(COc3ccc4c(c3)[C@]3(CC4)C[C@H]3C(=O)O)ccc2-c2cc(OC)ncc2F)CCCC1` [Example 27], on human GPR40 [1], the EC50 fell in the range of 1000 to 10000 nM.

`CC1(C)CCC(C)(C)c2cc(COc3ccc4c(c3)[C@]3(CC4)C[C@H]3C(=O)O)ccc21` [Example 104, (1R,2R)-6′-((5,5,8,8-tetramethyl-5,6,7,8-tetrahydro-2-naphthalenyl)methoxy)-2′,3′-dihydrospiro[cyclopropane-1,1′-indene]-2-carboxylic acid] registered an EC50 on human GPR40 [1] of more than 10000 nM.

Molecule `COc1ccc(F)c(-c2ccc(COc3ccc4c(c3)[C@@]3(CC4)C[C@@H]3C(=O)O)cc2[C@H]2CCCC2(C)C)c1` (single isomer, unassigned) [Example 10] had an EC50 on human GPR40 [1] of more than 10000 nM.

On to `COc1ccc(Cl)c(-c2ccc(COc3ccc4c(c3F)[C@@]3(CC4)C[C@@H]3C(=O)O)cc2[C@@H]2CCCC2(C)C)n1` (stereo in doubt) [Example 126], for which, at human GPR40 [1], the EC50 was 1000 to 10000 nM.

On human GPR40 [1], `CO[C@@H](c1cc(COc2ccc3c(c2)[C@]2(CCC3)C[C@H]2C(=O)O)ccc1-c1cncs1)C(C)(C)C` (racemic) [Example 135] gave an EC50 of 1000 to 10000 nM.

For `CO[C@@H](c1cc(COc2ccc3c(c2)[C@]2(CCC3)C[C@H]2C(=O)O)ccc1-c1cncc(F)c1)C(C)(C)C` (racemic) [Example 138], at human GPR40 [1], the EC50 was in the range of 1000 to 10000 nM.

As for `COc1ccc(COc2ccc3c(c2)[C@]2(CCC3)C[C@H]2C(=O)O)cc1[C@@H]1CCCC1(C)C` (single isomer, unassigned) [Example 128], the EC50 on human GPR40 [1] lay in the range of 1000 to 10000 nM.

`COc1ccc(F)c(-c2ccc(COc3ccc4c(c3)[C@]3(CC4)C[C@@H]3C(=O)O)cc2C2=CCCC2(C)C)c1` [Example 3] returned an EC50 at human GPR40 [1] of more than 10000 nM.

Molecule `C=CC(C)(C)[C@H]1c2cc(COc3ccc4c(c3)[C@]3(CC4)C[C@H]3C(=O)O)ccc2-c2c(F)ccc(OC)c21` (racemic) [Example 21] returned an EC50 at human GPR40 [1] of 100 to 1000 nM.

On human GPR40 [1], `COc1ccc(F)c(-c2ccc(COc3ccc4c(c3)[C@]3(CC4)C[C@H]3C(=O)O)cc2-c2nncn2C(C)C)c1` [Example 29] showed an EC50 of more than 10000 nM.

The molecule `C=CC1(c2cc(COc3ccc4c(c3)[C@]3(CC4)C[C@H]3C(=O)O)ccc2-c2cc(OC)ncc2F)CCCC1` [Example 26] yielded an EC50 on human GPR40 [1] of 1000 to 10000 nM.

Take `COc1ccc(F)c(-c2ccc(COc3cc(F)c4c(c3F)[C@@]3(CC4)C[C@@H]3C(=O)O)cc2[C@@H](OC)C(C)(C)C)c1` (single isomer, unassigned) [Example 38]: the EC50 on human GPR40 [1] was 1000 to 10000 nM.

In turn, `COc1ccc(F)c(-c2ccc(COc3ccc4c(c3)[C@@]3(CC4)C[C@H]3C(=O)O)cc2C2=CCCC2(C)C)c1` [Example 4] gave an EC50 on human GPR40 [1] of 1000 to 10000 nM.

`COc1cc(-c2ccc(COc3ccc4c(c3)[C@]3(CCC4)CC[C@@H]3C(=O)O)cc2[C@@H]2CCCC2(C)C)c(F)cn1` (single isomer, unassigned) [Example 153] had an EC50 at human GPR40 [1] of 1000 to 10000 nM.

As to `C=CC(C)(C)[C@@H]1c2cc(COc3ccc4c(c3)[C@]3(CC4)C[C@H]3C(=O)O)ccc2-c2c(F)ccc(OC)c21` (single isomer, unassigned) [Example 23], the EC50 at human GPR40 [1] lay within 1000 to 10000 nM.

`COc1ccc(F)c(-c2cc(COc3ccc4c(c3)[C@]3(CC4)C[C@H]3C(=O)O)ccc2C(C)(C)C)c1` [Example 5] displayed an EC50 at human GPR40 [1] of 1000 to 10000 nM.

As for `COc1ccc(F)c(-c2ccc(COc3cc(F)c4c(c3F)[C@]3(CC4)C[C@@H]3C(=O)O)cc2[C@@H](OC)C(C)(C)C)c1` (single isomer, unassigned) [Example 39], the EC50 on human GPR40 [1] was in the range of 1000 to 10000 nM.

For the molecule `COc1ccc(F)c(-c2ccc(COc3ccc4c(c3)C3(CC4)CCC3C(=O)O)cc2C(OC)C(C)(C)C)c1` (single isomer, unassigned) [Example 147], the EC50 on human GPR40 [1] lay in the range of 100 to 1000 nM.

With `COc1ccc(F)c(-c2ccc(COc3ccc4c(c3)[C@]3(CC4)CC[C@@H]3C(=O)O)cc2[C@@H]2CCCC2(C)C)c1` (single isomer, unassigned) [Example 146], the half-maximal effective concentration (EC50) at human GPR40 [1] is 100 to 1000 nM.

As to `COc1ccc(F)c(-c2ccc(COc3cc(F)c4c(c3F)[C@]3(CC4)C[C@@H]3C(=O)O)cc2[C@H]2CCCC2(C)C)c1` (single isomer, unassigned) [Example 35], the EC50 at human GPR40 [1] was more than 10000 nM.

In turn, `O=C(O)[C@@H]1C[C@]12CCc1ccc(Oc3ccc(C(F)(F)F)c(Br)c3)cc12` [Example 124, (1R,2R)-6′-(3-Bromo-4-(trifluoromethyl)phenoxy)-2′,3′-dihydrospiro[cyclopropane-1,1′-indene]-2-carboxylic acid] gave an EC50 on human GPR40 [1] of 1000 to 10000 nM.

Regarding `COc1ccc(F)c(-c2cc(COc3ccc4c(c3)[C@@]3(CC4)C[C@@H]3C(=O)O)ccc2C(C)(C)C)c1` [Example 6], the EC50 on human GPR40 [1] is more than 10000 nM.

As to `COc1ccc(F)c(-c2ccc(COc3ccc4c(c3)[C@]3(CC4)CC[C@@H]3C(=O)O)cc2[C@@H](OC)C(C)(C)C)c1` (single isomer, unassigned) [Example 145], the EC50 on human GPR40 [1] fell in the range of 1000 to 10000 nM.

On human GPR40 [1], `C=CC(C)(C)c1cc(COc2ccc3c(c2)[C@]2(CC3)C[C@H]2C(=O)O)ccc1-c1cc(OC)ncc1F` [Example 123, (1R,2R)-6′-(4-(5-Fluoro-2-methoxypyridin-4-yl)-3-(2-methylbut-3-en-2-yl)benzyloxy)-2′,3′-dihydrospiro[cyclopropane-1,1′-indene]-2-carboxylic acid] had an EC50 of 1000 to 10000 nM.

`COc1ccc(F)c(-c2ccc(COc3ccc4c(c3)[C@@]3(CC4)[C@H](C(=O)O)[C@@H]3C)cc2[C@@H]2CCCC2(C)C)c1` (single isomer, unassigned) [Example 140] showed an EC50 on human GPR40 [1] of 100 to 1000 nM.

As to `COc1ccc(F)c(-c2ccc(COc3ccc4c(c3)[C@@]3(CCC4)C[C@@H]3C(=O)O)cc2C2=CCCC2(C)C)c1` [Example 50], the EC50 at human GPR40 [1] is more than 10000 nM.

On human GPR40 [1], `COc1ccc(F)c(-c2ccc(COc3cc(F)c4c(c3F)[C@@]3(CC4)C[C@H]3C(=O)O)cc2[C@@H](OC)C(C)(C)C)c1` (single isomer, unassigned) [Example 40] returned an EC50 of 1000 to 10000 nM.

On human GPR40 [1], `CO[C@@H](c1cc(COc2ccc3c(c2)[C@]2(CCC3)C[C@H]2C(=O)O)ccc1-c1ccnc(C(F)(F)F)c1)C(C)(C)C` (racemic) [Example 136] came in with an EC50 of 1000 to 10000 nM.

For the molecule `COc1ccc(F)c(-c2ccc(COc3cc(F)c4c(c3F)[C@@]3(CC4)C[C@@H]3C(=O)O)cc2[C@H]2CCCC2(C)C)c1` (single isomer, unassigned) [Example 34], the EC50 at human GPR40 [1] lay in the range of 1000 to 10000 nM.

With `CO[C@@H](c1cc(COc2ccc3c(c2)[C@]2(CCC3)C[C@H]2C(=O)O)ccc1Br)C(C)(C)C` (racemic) [Example 132], the EC50 on human GPR40 [1] was in the range of 1000 to 10000 nM.

For `COc1ccc(F)c(-c2ccc(COc3cc(F)c4c(c3F)[C@@]3(CC4)C[C@H]3C(=O)O)cc2[C@H]2CCCC2(C)C)c1` (single isomer, unassigned) [Example 36], at human GPR40 [1], the EC50 was more than 10000 nM.

At human GPR40 [1], `COc1ccc(F)c(-c2cc(COc3ccc4c(c3)[C@]3(CC4)C[C@@H]3C(=O)O)ccc2C(C)(C)C)c1` [Example 7] displayed an EC50 of more than 10000 nM.

Consider `COc1ccc(F)c(-c2ccc(COc3ccc4c(c3)C3(CCC4)CCC3C(=O)O)cc2C(OC)C(C)(C)C)c1` (single isomer, unassigned) [Example 157], for which the EC50 at human GPR40 [1] fell in the range of 1000 to 10000 nM.

Turning to `COc1ccc(F)c(-c2ccc(COc3ccc4c(c3)[C@@]3(CC4)C[C@@H]3C(=O)O)cc2C2=CCCC2(C)C)c1` [Example 2], on human GPR40 [1], the EC50 was more than 10000 nM.
